Our source for the AC50 values is publication PMC6207684, “Structural reorganization of SHP2 by oncogenic mutations and implications for oncoprotein resistance to allosteric inhibition” (Nature Communications, 2018).

Numbering of substitutions follows the chain as printed. Where a SMILES comes first, the peptide text is derived from it. [ ]: non-standard residue; d: D form. pY = N[C@@H](Cc1ccc(OP(=O)(O)O)cc1)C(=O)O; PEG8 = NCCOCCOCCOCCOCCOCCOCCOCCOCCC(=O)O

Common to all, as to test: SHP2 phosphatase activity upon p-IRS-1 peptide stimulation (DiFMUP)
Common to all, as to type: biochemical
Details in all cases: 200 μM DiFMUP, read-out: pIRS-1 AC50

One assay addresses T1, SHP2^F285S (Homo sapiens, UniProt Q06124, F285S).
T1 construct: made in house
T1 sequence (Q06124 1-593 F285S): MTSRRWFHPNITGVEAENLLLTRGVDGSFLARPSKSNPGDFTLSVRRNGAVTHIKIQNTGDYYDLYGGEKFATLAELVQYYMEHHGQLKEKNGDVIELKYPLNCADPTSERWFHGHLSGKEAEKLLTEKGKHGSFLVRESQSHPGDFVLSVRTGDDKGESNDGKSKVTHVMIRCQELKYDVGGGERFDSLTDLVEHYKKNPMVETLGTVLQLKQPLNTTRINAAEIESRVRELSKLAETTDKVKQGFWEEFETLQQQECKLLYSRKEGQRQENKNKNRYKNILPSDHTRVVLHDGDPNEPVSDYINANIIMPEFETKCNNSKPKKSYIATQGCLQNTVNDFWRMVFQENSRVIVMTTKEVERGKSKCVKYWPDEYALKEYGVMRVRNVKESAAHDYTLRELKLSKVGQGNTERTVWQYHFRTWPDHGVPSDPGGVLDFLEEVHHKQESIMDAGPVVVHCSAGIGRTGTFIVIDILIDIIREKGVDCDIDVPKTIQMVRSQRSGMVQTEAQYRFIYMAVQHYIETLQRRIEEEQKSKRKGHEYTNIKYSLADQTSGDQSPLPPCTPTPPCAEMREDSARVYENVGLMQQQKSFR
As to the method: (§1) Wild-type and mutant SHP2 proteins were diluted to 0.1 nM and treated with either varying concentrations of diphosphorylated IRS-1 peptide (pY1172-Peg-PY1222, SLNY(p)IDLDLVK-dPEG8-LSTY(p)ASINFQK), or for maximal activation, 10 μM pY1172-Peg-PY1222. Phosphatase activity was measured through the dephosphorylation DiFMUP (200 μM, ex. 385, em. 450 nm) on a Spectramax M5 plate reader and converted to product (DiFMU)/time by preparing a standard curve of DiFMU/DiFMUP. Velocity data were fit to the following three-parameter dose–response curve (Eq. (2)) to extrapolate EC50 values:2 V=Basal+Max-Basal∕1+10^LogEC50-S Where V represents enzyme velocity, Basal is basal response, Max is maximal response, [S] is substrate concentration, and EC50 is the substrate concentration that yields response half way between basal and maximal.

A further assay addresses T2, SHP2^S502P (Homo sapiens, UniProt Q06124, S502P).
T2 construct: made in house
T2 sequence (Q06124 1-593 S502P): T1 sequence (Q06124 1-593 F285S) with S285F, S502P
As to the method: as §1

The next assay concerns the target T3, SHP2^G60V (Homo sapiens, UniProt Q06124, G60V).
T3 construct: made in house
T3 sequence (Q06124 1-593 G60V): T1 sequence (Q06124 1-593 F285S) with G60V, S285F
As to the method: as §1

For another assay, the target named is T4, SHP2^WT (Homo sapiens, UniProt Q06124).
T4 construct: made in house
T4 sequence (Q06124 1-593): T1 sequence (Q06124 1-593 F285S) with S285F
As to the method:
as §1

The next assay deals with T5, SHP2^D61V (Homo sapiens, UniProt Q06124, D61V).
T5 construct: made in house
T5 sequence (Q06124 1-593 D61V): T1 sequence (Q06124 1-593 F285S) with D61V, S285F
As to the method: as §1

Turning to `CC[C@H](C)[C@H](NC(=O)[C@H](CO)NC(=O)[C@H](C)NC(=O)[C@H](Cc1ccc(OP(=O)(O)O)cc1)NC(=O)[C@@H](NC(=O)[C@H](CO)NC(=O)[C@H](CC(C)C)NC(=O)CCOCCOCCOCCOCCOCCOCCOCCOCCNC(=O)[C@H](CCCCN)NC(=O)[C@@H](NC(=O)[C@H](CC(C)C)NC(=O)[C@H](CC(=O)O)NC(=O)[C@H](CC(C)C)NC(=O)[C@H](CC(=O)O)NC(=O)[C@@H](NC(=O)[C@H](Cc1ccc(OP(=O)(O)O)cc1)NC(=O)[C@H](CC(N)=O)NC(=O)[C@H](CC(C)C)NC(=O)[C@@H](N)CO)[C@@H](C)CC)C(C)C)[C@@H](C)O)C(=O)N[C@@H](CC(N)=O)C(=O)N[C@@H](Cc1ccccc1)C(=O)N[C@@H](CCC(N)=O)C(=O)N[C@@H](CCCCN)C(=O)O` [pIRS-1, SLNY(p)IDLDLVK-dPEG8-LSTY(p)ASINFQK] (H-SLN[pY]IDLDLVK[PEG8]LST[pY]ASINFQK-OH), the AC50 (in general, the midpoint of the concentration-response curve, whichever way the signal moves) worked out at 18 ± 2 nM at SHP2^F285S; 5 ± 2 nM on SHP2^S502P; 9 ± 2 nM at SHP2^G60V; 247 ± 18 nM at SHP2^WT; 4 ± 1 nM on SHP2^D61V.
